Results taken from PubChem BioAssay AID248 (DTP/NCI, 2004).
“And” between values parts separate entries of the source, which are not always exact repeats. Equal entries are not always repeated. Inconclusive results and toxic doses are left out. Rule as the data show it: active = T/C of 150% or more; inactive = T/C below 125%.

Tested on: L1210 leukemia ip in BDF1 mice, survival T/C
Assay: NCI In Vivo Anticancer Drug Screen. Data for tumor model L1210 Leukemia (intraperitoneal) in B6D2F1 (BDF1) mice
Conditions: endpoint: mean survival time, higher = longer survival
In short: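 Ratio derived from survival: compound-dosed mice over vehicle-dosed mice, all bearing a transplantable tumor.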

Measured: T/C

CCOC(=O)/C(C)=N/Nc1nn[nH]n1
inactive: dose: 100.0 mg/kg/injection, schedule: Q04DX003 (ip), vehicle: saline 99 % of control | dose: 200.0 mg/kg/injection, schedule: Q04DX003 (ip), vehicle: saline 99 % of control | dose: 400.0 mg/kg/injection, schedule: Q04DX003 (ip), vehicle: saline 86 % of control

CCCCCC(=O)N1CCCCC1
inactive: dose: 25.0 mg/kg/injection, schedule: Q01DX009 (ip), vehicle: Klucel (hydroxypropylcellulose) (HPC) 93 % of control | dose: 50.0 mg/kg/injection, schedule: Q01DX009 (ip), vehicle: Klucel (hydroxypropylcellulose) (HPC) 96 % of control | dose: 100.0 mg/kg/injection, schedule: Q01DX009 (ip), vehicle: Klucel (hydroxypropylcellulose) (HPC) 94 % of control

CC(C)([CH2][Sn]([Cl])([Cl])[CH2]C(C)(C)c1ccccc1)c1ccccc1
inactive: dose: 0.1 mg/kg/injection, schedule: Q04DX002 (ip), vehicle: saline with Tween-80 95 % of control | dose: 0.2 mg/kg/injection, schedule: Q04DX002 (ip), vehicle: saline with Tween-80 95 % of control | dose: 0.4 mg/kg/injection, schedule: Q04DX002 (ip), vehicle: saline with Tween-80 95 % of control | dose: 0.8 mg/kg/injection, schedule: Q04DX002 (ip), vehicle: saline with Tween-80 92 % of control | dose: 3.13 mg/kg/injection, schedule: Q04DX002 (ip), vehicle: saline with Tween-80 98 % of control

C[C@H]1/C(=C/C(=O)OCCN(C)C)CC[C@H]2[C@H]1C(=O)C[C@H]1C(C)(C)[C@@H](O)CC[C@]21C
inactive: dose: 5.0 mg/kg/injection, schedule: Q01DX001 (ip), vehicle: other 106 % of control | dose: 10.0 mg/kg/injection, schedule: Q01DX001 (ip), vehicle: other 97 % of control | dose: 20.0 mg/kg/injection, schedule: Q01DX001 (ip), vehicle: other 97 % of control

COc1ccc(C(O)(c2ccccc2)C(O)c2ccccc2)cc1 (stereo unspecified)
inactive: dose: 100.0 mg/kg/injection, schedule: Q01DX009 (ip), vehicle: saline with Tween-80 98 % of control | dose: 200.0 mg/kg/injection, schedule: Q01DX009 (ip), vehicle: saline with Tween-80 88 % of control | dose: 400.0 mg/kg/injection, schedule: Q01DX009 (ip), vehicle: saline with Tween-80 86 % of control

CCCCCN(CCCCC)C(=O)CCCC
inactive: dose: 100.0 mg/kg/injection, schedule: Q01DX001 (ip), vehicle: carboxymethylcellulose (CMC) 115 % of control | dose: 100.0 mg/kg/injection, schedule: Q01DX009 (ip), vehicle: carboxymethylcellulose (CMC) 93 % of control and 97 % of control | dose: 100.0 mg/kg/injection, schedule: Q04DX002 (ip), vehicle: carboxymethylcellulose (CMC) 101 % of control and 105 % of control | dose: 100.0 mg/kg/injection, schedule: Q04DX003 (ip), vehicle: carboxymethylcellulose (CMC) 97 % of control | dose: 200.0 mg/kg/injection, schedule: Q01DX001 (ip), vehicle: carboxymethylcellulose (CMC) 101 % of control | dose: 200.0 mg/kg/injection, schedule: Q01DX009 (ip), vehicle: carboxymethylcellulose (CMC) 100 % of control and 102 % of control | dose: 200.0 mg/kg/injection, schedule: Q04DX002 (ip), vehicle: carboxymethylcellulose (CMC) 98 % of control and 103 % of control | dose: 200.0 mg/kg/injection, schedule: Q04DX003 (ip), vehicle: carboxymethylcellulose (CMC) 95 % of control | dose: 400.0 mg/kg/injection, schedule: Q01DX001 (ip), vehicle: carboxymethylcellulose (CMC) 100 % of control | dose: 400.0 mg/kg/injection, schedule: Q01DX009 (ip), vehicle: carboxymethylcellulose (CMC) 97 % of control and 86 % of control | dose: 400.0 mg/kg/injection, schedule: Q04DX002 (ip), vehicle: carboxymethylcellulose (CMC) 98 % of control and 87 % of control | dose: 400.0 mg/kg/injection, schedule: Q04DX003 (ip), vehicle: carboxymethylcellulose (CMC) 100 % of control

CNC(=O)c1ccccc1N
inactive: dose: 100.0 mg/kg/injection, schedule: Q04DX003 (ip), vehicle: saline with Tween-80 100 % of control | dose: 200.0 mg/kg/injection, schedule: Q04DX003 (ip), vehicle: saline with Tween-80 95 % of control | dose: 400.0 mg/kg/injection, schedule: Q04DX003 (ip), vehicle: saline with Tween-80 98 % of control

Cn1c(=N)sc2ccc3ccccc3c21
inactive: dose: 12.5 mg/kg/injection, schedule: Q04DX003 (ip), vehicle: Klucel (hydroxypropylcellulose) (HPC) 90 % of control | dose: 25.0 mg/kg/injection, schedule: Q04DX003 (ip), vehicle: Klucel (hydroxypropylcellulose) (HPC) 91 % of control | dose: 50.0 mg/kg/injection, schedule: Q04DX003 (ip), vehicle: Klucel (hydroxypropylcellulose) (HPC) 98 % of control | dose: 100.0 mg/kg/injection, schedule: Q04DX003 (ip), vehicle: Klucel (hydroxypropylcellulose) (HPC) 86 % of control
